“And” between values parts separate entries of the source, which are not always exact repeats. Identical values can stand only once.
How the values were obtained:
[1] = Crystal; for vapor or sublimation pressure: Transpiration method; for Normal melting temperature: DTA
[2] = Molar enthalpy of transition or fusion; conditions: Crystal; DSC

O=C(O)c1cccc(F)c1 [3-fluorobenzoic acid]
[1]
Conditions | vapor or sublimation pressure [kPa]
331.9 K | 0.00407
334.9 K | 0.00564
338 K | 0.00734
342.1 K | 0.01139
345 K | 0.01472
347.1 K | 0.01783
350.4 K | 0.02353
353.3 K | 0.03091
356.5 K | 0.04119
359.5 K | 0.0543
362.6 K | 0.06845

Conditions | Molar enthalpy of transition or fusion [kJ/mol] | Normal melting temperature [°C]
[1] | – | 122.8
[2] | 18.5 | –

O=C(O)c1ccc(F)cc1 [4-fluorobenzoic acid]
[1]
Conditions | vapor or sublimation pressure [kPa]
343 K | 0.00456
346.2 K | 0.00612
349.3 K | 0.00844
355.1 K | 0.01384
356.5 K | 0.01539
359.5 K | 0.02097
363.7 K | 0.02861
365.6 K | 0.03441
366.9 K | 0.03729
371.8 K | 0.05523
375.8 K | 0.07688
380.9 K | 0.1162
385.2 K | 0.1594
386.2 K | 0.1701

Conditions | Molar enthalpy of transition or fusion [kJ/mol] | Normal melting temperature [°C]
[1] | – | 183.0
[2] | 21.6 | –

O=C(O)c1ccc(I)cc1 [4-iodobenzoic acid]
[1]
Conditions | vapor or sublimation pressure [kPa]
388.9 K | 0.00205
391.1 K | 0.00244
403.3 K | 0.00654
409.4 K | 0.01081
415.3 K | 0.01743
421.5 K | 0.02673
424.5 K | 0.03413
427.4 K | 0.04118
433.5 K | 0.06312

Conditions | Molar enthalpy of transition or fusion [kJ/mol] | Normal melting temperature [°C]
[1] | – | 270.8
[2] | 33.7 | –

O=C(O)c1cccc(I)c1 [3-iodobenzoic acid]
[1]
Conditions | vapor or sublimation pressure [kPa]
366.6 K | 0.00121
370.4 K | 0.00171
375.8 K | 0.00281
380.8 K | 0.00438
386 K | 0.00688
389.1 K | 0.00894
391.9 K | 0.01174
395.1 K | 0.01521
399.2 K | 0.02068
404.1 K | 0.03146
404.2 K | 0.03145
409 K | 0.04684
411.4 K | 0.05339
414.2 K | 0.06461
417.5 K | 0.08451
422 K | 0.1194

Conditions | Molar enthalpy of transition or fusion [kJ/mol] | Normal melting temperature [°C]
[1] | – | 185.8
[2] | 27.7 | –

O=C(O)c1ccccc1F [2-fluorobenzoic acid]
[1]
Conditions | vapor or sublimation pressure [kPa]
333.9 K | 0.00321
334.6 K | 0.0035
335.9 K | 0.00389
337 K | 0.00451
338.9 K | 0.00528
340.2 K | 0.00614
342 K | 0.00738
342.2 K | 0.00734
345 K | 0.0094
346.6 K | 0.01115
348.3 K | 0.0132
351.2 K | 0.01709
352.4 K | 0.01997
353.2 K | 0.02087
354.2 K | 0.02242
356.5 K | 0.02903
358.2 K | 0.03398
358.3 K | 0.0322
360.5 K | 0.03997
361.3 K | 0.04428
363.4 K | 0.05001
364.5 K | 0.05529
367.2 K | 0.07204

Conditions | Molar enthalpy of transition or fusion [kJ/mol] | Normal melting temperature [°C]
[1] | – | 123.6
[2] | 20.3 | –

O=C(O)c1ccccc1I [2-iodobenzoic acid]
[1]
Conditions | vapor or sublimation pressure
362.4 K | 0.00113 kPa
367.6 K | 0.00188 kPa
376.2 K | 0.00432 kPa
381.9 K | 0.00744 kPa
386.9 K | 0.01099 kPa
393.2 K | 0.02004 kPa and 0.01875 kPa
397.2 K | 0.02759 kPa
399.2 K | 0.03193 kPa
403.2 K | 0.0431 kPa and 0.04492 kPa
407.3 K | 0.06078 kPa
411.5 K | 0.08737 kPa

Conditions | Molar enthalpy of transition or fusion [kJ/mol] | Normal melting temperature [°C]
[1] | – | 161.4
[2] | 27.6 | –
